Source: US10472352B2, “Rac inhibitors” (Geneyus LLC, priority 2017, dated 2019)

Assays:
[1] = system: MCF-7 human breast cancer cell line; test: Cell Viability Assay (MCF7), PrestoBlue; assay type: cell-based; details: MCF7, 72 h, MCF-7 cells, three days after drug treatment
Method: In order to determine a compound's effect on cell viability, PrestoBlue assays were performed as previously described by Kuhn et al. (2013) with modifications. MCF-7 human breast cancer and IGR-1 human melanoma cell lines were seeded into 96-well plates 24 hours prior to addition of drug. Cells were treated with 0 to 200 μM (11 concentrations) of compound solubilized in DMSO, adjusting the final concentration of DMSO to 1% in the well. Three days after drug treatment, cell viability was measured by adding PrestoBlue (Life Technologies Ltd.; cat. No. A13262) reagent directly to wells containing media/drug to reach a final concentration of 10%. PrestoBlue is a modified molecule of the common Alamar Blue probe used to determine viability based on the ability of a cell to metabolize a nonfluorescent compound (resazurin) to a florescent molecule (resorufin). Following a 1 hour incubation period, total well fluorescence was measured using the microplate reader M1000 pro (Tecan) with excitation 560-5 nm and emission 590-5 nm. […] The percentage of living cells was then computed by comparison with control wells. Kuhn, Jonas et al., Assay and Drug Development Technologies, March 2013, Label-Free Cytotoxicity Screening Assay by Digital Holographic Microscopy.

[2] = molecular target: T1, Rac1 protein (Homo sapiens, UniProt P63000); test: Fluorescence Polarization Assay (Rac1 FP); assay type: binding; details: 125 nM his-tagged Rac1, 12.5 nM Bodipy-TR GTPγS, 30 minutes at 37° C.
T1 construct: purchased Cytoskeleton Inc. RC01
Method: Direct binding of Rac1 compound inhibitors to Rac1 protein was performed using fluorescence polarization (FP). Briefly, Rac1 inhibitors were initially dissolved in DMSO and then serial drug dilutions in exchange buffer (20 mM Tris pH 7.5, 50 mM NaCl, 1 mM MgCl, 1 mM EDTA) were prepared in a flat black 96-well half-area plate (Greiner). Recombinant his-tagged Rac1 protein (Cytoskeleton Inc. Cat. # RC01) was added to the inhibitors at a final concentration of 125 nM along with 12.5 nM Bodipy-TR GTPγS (Life Technologies Inc. Cat. # G35780) in exchange buffer and incubated for 30 minutes at 37° C. in exchange buffer. After 30 minutes of incubation. FP was measured on the M1000 Pro (Tecan) fluorescent plate reader with 590 nm±5 nm excitation and 625 nm±5 nm emission spectra settings.

[3] = molecular target: His-Rac1 / GST-PBD (PAK Binding Domain) (Homo sapiens, UniProt P63000); test: Rac Activation AlphaScreen Assay (Rac1 AS); assay type: biochemical; details: 500 nM GTPγS, 37° C., 1 hour; 'positive' = signal generated was higher than the positive control
Method: AlphaScreen® assays were performed in 96-well microplates in a final reaction volume of 60 μl. Recombinant His-Rac1, recombinant GST-PBD (PAK Binding Domain), donor and acceptor beads (PerkinElmer), and inhibitors were incubated in exchange buffer (20 mM Tris pH 7.5, 50 mM NaCl, 1 mM MgCl2, 1 mM EDTA, 500 nM GTPγS (guanosine 5′-[γ-thio]triphosphate)) at 37° C. Readings were performed on a Tecan M1000 pro microplate reader after 1 hour.

[4] = system: BT474 breast cancer cells; test: BT474 Four (4) Day Cell Viability Assay; assay type: cell-based; details: BT474, 4 days, 32661 0 μM, fulvestrant 0.0 nM
Method: BT474 breast cancer cells that are Estrogen Receptor Positive and HER2+ were grown in 5% cFBS. 5,000 cells were seeded into each well of a 96-well plate and treated with escalating doses of lapatinib, fulvestrant, and 32661.

IC50 [1]	IC50 [2]	IC50 [3]	Structure (SMILES)	also measured
11.6 µM	2.79 µM	35 µM	FC(F)(F)c1ccc2c(SCCCCCCn3ccc(CN4CCOCC4)n3)ccnc2c1 [Compound 0032897, 4-({6-[3-(morpholin-4-ylmethyl)-1H-pyrazol-1-yl]hexyl}sulfanyl)-7-(trifluoromethyl) quinoline]	–
7.6 µM	2.32 µM	1.1 µM	NC1CCN(c2ccc(NCCCCCCSc3ccnc4cc(C(F)(F)F)ccc34)cc2)CC1 [Compound 0033278, 1-{4-[(6-{[7-(trifluoromethyl)quinolin-4-yl]sulfanyl}hexyl)amino]phenyl} piperidin-4-amine]	–
7.8 µM	100 µM	9.6 µM	OC(c1ccccc1)c1cn(CCCCCCSc2ccnc3cc(C(F)(F)F)ccc23)cn1 (stereo not shown) [Compound 0033043, phenyl[1-(6-{[7-(trifluoromethyl)quinolin-4-yl]sulfanyl}hexyl)-1H-imidazol-4-yl]methanol]	–
9.34 µM	1.48 µM	–	COCCN(Cc1cn(CCCCCCSc2ccnc3cc(C(F)(F)F)ccc23)nn1)C(=O)OC(C)(C)C [Compound 0032621, tert-butyl N-(2-methoxyethyl)-N-{[1-(6-{[7-(trifluoromethyl)quinolin-4-yl]sulfanyl}hexyl)-1H-1,2,3-triazol-4-yl]methyl}carbamate]	Rac1 AS IC50(uM) [3]: positive
9.1 µM	5.16 µM	24.1 µM	FC(F)(F)c1ccc2c(SCc3cccc(Cn4cc(CN5CCOCC5)nn4)c3)ccnc2c1 [Compound 0032731, 4-[{(3-{[4-(morpholin-4-ylmethyl)-1H-1,2,3-triazol-1-yl]methyl}phenyl)methyl]sulfanyl)-7-(trifluoromethyl) quinoline]	–
13.8 µM	4.76 µM	–	O=C(NCc1cn(CCCCCCSc2ccnc3cc(C(F)(F)F)ccc23)nn1)C1CCCCC1 [Compound 0032896, N-{[1-(6-{[7-(trifluoromethyl)quinolin-4-yl]sulfanyl}hexyl)-1H-1,2,3-triazol-4-yl]methyl} cyclohexane-carboxamide]	Rac1 AS IC50(uM) [3]: positive
11.3 µM	3.73 µM	62 µM	FC(F)(F)c1ccc2c(SCCCCCCCn3cc(CN4CCOCC4)nn3)ccnc2c1 [Compound 0032371, 4-({7-[4-(morpholin-4-ylmethyl)-1H-1,2,3-triazol-1-yl]heptyl}sulfanyl)-7-(trifluoromethyl) quinoline]	–
3.8 µM	9.67 µM	0.98 µM	FC(F)(F)c1ccc2c(SCCCCCNc3ccc(N4CCNCC4)cc3)ccnc2c1 [Compound 0033240, 4-(piperazin-1-yl)-N-(5-{[7-(trifluoromethyl)quinolin-4-yl]sulfanyl}pentyl)aniline]	–
5.6 µM	3.07 µM	6.3 µM	O=C1CNCCN1c1ccc(NCCCCCCSc2ccnc3cc(C(F)(F)F)ccc23)cc1 [Compound 0033283, 1-{4-[(6-{[7-(trifluoromethyl)quinolin-4-yl]sulfanyl)hexyl}amino]phenyl} piperazin-2-one]	–
7.8 µM	4.32 µM	–	Fc1ccc2c(SCCCCCCn3cc(CN4CCOCC4)nn3)ccnc2c1 [Compound 0032833, 7-fluoro-4-{(6-[4-(morpholin-4-ylmethyl)-1H-1,2,3-triazol-1-yl]hexyl}sulfanyl) quinoline]	Rac1 AS IC50(uM) [3]: positive
10.7 µM	1.41 µM	8.2 µM	COc1ccc(N2CCN(Cc3cn(CCCCCCSc4ccnc5cc(C(F)(F)F)ccc45)nn3)CC2)cc1 [Compound 0032956, 4-{[6-(4-{[4-(4-methoxyphenyl)piperazin-1-yl]methyl}-1H-1,2,3-triazol-1-yl)hexyl]sulfanyl}-7-(trifluoromethyl) quinoline]	–
7.8 µM	2.04 µM	4.4 µM	FC(F)(F)c1ccc2c(SCCCCCCn3cnc(CNc4ccccc4)c3)ccnc2c1 [Compound 0032886, N-{[1-(6-{[7-(trifluoromethyl)quinolin-4-yl]sulfanyl)hexyl}-1H-imidazol-4-yl]methyl} aniline]	–
6.8 µM	0.249 µM	6 µM	COc1ccc(NCc2cn(CCCCCCSc3ccnc4cc(C(F)(F)F)ccc34)cn2)cc1 [Compound 0032881, 4-methoxy-N-{[1-(6-{[7-(trifluoromethyl)quinolin-4-yl]sulfanyl}hexyl)-1H-imidazol-4-yl]methyl}aniline]	–

The next lines start with the compound.

Structure (SMILES)	IC50 [1]	IC50 [2]	IC50 [3]	also measured
O=C1COCCN1c1cccc(NCCCCCCSc2ccnc3cc(C(F)(F)F)ccc23)c1 [Compound 0033306, 4-(3-{(6-{[7-(trifluoromethyl)quinolin-4-yl]sulfanyl)hexyl}amino]phenyl} morpholin-3-one]	3.58 µM	1.54 µM	8.2 µM	–
CS(=O)(=O)CCNCc1ccc(-c2ccc3ncnc(Nc4ccc(OCc5cccc(F)c5)c(Cl)c4)c3c2)o1 [Lapatinib, lapatinib, reference compound]	–	–	–	cellular viability ([4]; lapatinib 6.9 nM): 99%; cellular viability ([4]; lapatinib 20.6 nM): 96%; cellular viability ([4]; lapatinib 61.7 nM): 80%; cellular viability ([4]; lapatinib 185.2 nM): 75%; cellular viability ([4]; lapatinib 555.6 nM): 77%; cellular viability ([4]; lapatinib 1666.7 nM): 68%; cellular viability ([4]; lapatinib 3333.0 nM): 60%
CN(Cc1cn(CCCCCCSc2ccnc3cc(C(F)(F)F)ccc23)cn1)c1ccccc1 [Compound 0032887, N-methyl-N-{[1-(6-{[7-(trifluoromethyl)quinolin-4-yl]sulfanyl)hexyl}-1H-imidazol-4-yl]methyl}aniline]	11.8 µM	1.18 µM	4.7 µM	–
Fc1ccc2c(SCCCCCCn3cnc(CNc4ccccc4)c3)ccnc2c1 [Compound 0033042, N-{(1-(6-[(7-fluoroquinolin-4-yl)sulfanyl]hexyl}-1H-imidazol-4-yl}methyl] aniline]	9 µM	2.35 µM	7.2 µM	–
FC(F)(F)c1ccc2c(SCCCCCCNc3ccc(N4CCOCC4)cc3)ccnc2c1 [Compound 0033200, 4-(morpholin-4-yl)-N-(6-{[7-(trifluoromethyl)quinolin-4-yl]sulfanyl}hexyl)aniline]	10.8 µM	0.71 µM	2.3 µM	–
FC(F)(F)c1ccc2c(SCCCCCCn3cncc3CN3CCOCC3)ccnc2c1 [Compound 0032662, 4-({6-[5-(morpholin-4-ylmethyl)-1H-imidazol-1-yl]hexyl}sulfanyl)-7-(trifluoromethyl) quinoline]	19.1 µM	2.33 µM	16.6 µM	–
FC(F)(F)c1ccc2c(SCCCCCCNc3cccc(N4CCNCC4)c3)ccnc2c1 [Compound 0033235, 3-piperazin-1-yl-N-[6-[[7-(trifluoromethyl)-4-quinolyl]sulfanyl]hexyl]aniline]	3.6 µM	4.81 µM	1.1 µM	–
Cc1ccc(NCc2cn(CCCCCCSc3ccnc4cc(C(F)(F)F)ccc34)cn2)cc1 [Compound 0032880, 4-methyl-N-{[1-(6-{[7-(trifluoromethyl)quinolin-4-yl]sulfanyl)hexyl}-1H-imidazol-4-yl]methyl)aniline]	6.3 µM	1 µM	3.2 µM	–
FC(F)(F)c1ccc2c(SCCCCCCNc3ccc(N4CCNCC4)cc3)ccnc2c1 [Compound 0033102, 4-(piperazin-1-yl)-N-(6-{[7-(trifluoromethyl)quinolin-4-yl]sulfanyl}hexyl)aniline]	3.8 µM	9.66 µM	0.383 µM	–
